Laboratory results as given in patent US11883468B2, “Compositions and methods to suppress tumor growth in bone, prevent cachectic muscle loss, and preserve skeletal integrity” (United States Government As Represented By The Department …, priority 2019, dated 2024).

How the values were obtained:
[1] = system: MDA-MB-231 BC cells; assay: EVOCA with MDA-MB-231 cells, tumor gene mRNA by PCR; type: cell-based, human; conditions: 7d EVOCA
Protocol: FIGS. 7A, 7B, and 7C show the effects of bPTH7-34DD on MDA-MB-231; 7d EVOCA, PCR as done in FIG. 5.
(§1) EVOCA (ex vivo organ co-culture assay) of breast cancer cells and bone: Segments of neonatal mouse bone are prepared by a modification of Mohammad et al [2008]. Calvariae from euthanized 14 day old Swiss Webster pups are cut into 5 mm disks with a biopsy punch, yielding two disks (hemi-calvariae) per pup, and placed into wells of uncoated 24-well plates. Calvariae from βArr2−/− and +/+ littermates, as available, can be shipped in sterile tubes in standard tissue culture medium by overnight FedEx from the Luttrell laboratory at Medical University of South Carolina. Bones shipped overnight in media survive the shipping and give reproducible results, compared to freshly harvested bones. […] At the end of the incubation, bone are either fixed and decalcified for routine histology or homogenized for RNA isolation with a bead beater, using QIAGEN RNeasy mini kits, converted to cDNA (Biorad iScript,), and analyzed by quantitative PCR using Biorad SYBR green PCR kits and a Biorad iCycler single-color real-time detection system. […] EVOCA cultures can be analyzed by histology and IHC staining. […]

[2] = system: MDA-MB-231 breast cancer cells; assay: EVOCA (ex vivo organ co-culture assay of tumor + bone), tumor burden by SSQ-PCR for hRPL32; type: cell-based, human; conditions: 7d EVOCA, wt bones
Protocol: 7D EVOCA. Tumor burden by SSQ-PCR for hRPL32.
as §1, with “bones. Cancer cells (2-10×10^3, depending on cell types and ability to adhere to bones; e.g., 2,000 for MDA-MB-231) are added in 0.5 ml BGJb medium (Life Technologies) +10% fetal calf serum and incubated at 37° C. in 5% CO2.” for “bones.”

[3] = system: bone; conditions: cited from earlier work
[4] = system: calvarial osteoblasts; conditions: osteoblasts from treated mice; cited from earlier work
[5] = 4 or 8 weeks, once-daily injection
[6] = continuous infusion, 40 μg/kg/d

For Fc1ccc(Cl)cc1-c1nc(Nc2ccncc2)c2nccnc2n1 [SD208], the “tumor hPTHrP mRNA” value [1] was “not seen”.

In the case of CC[C@H](C)[C@H](NC(=O)[C@H](CCC(=O)O)NC(=O)[C@H](CO)NC(=O)[C@@H](NC(=O)[C@@H](N)CO)C(C)C)C(=O)N[C@@H](CCC(N)=O)C(=O)N[C@@H](CC(C)C)C(=O)N[C@@H](CCSC)C(=O)N[C@@H](Cc1cnc[nH]1)C(=O)N[C@@H](CC(N)=O)C(=O)N[C@@H](CC(C)C)C(=O)NCC(=O)N[C@@H](CCCCN)C(=O)N[C@@H](Cc1cnc[nH]1)C(=O)N[C@@H](CC(C)C)C(=O)N[C@@H](CC(N)=O)C(=O)N[C@@H](CO)C(=O)N[C@@H](CCSC)C(=O)N[C@@H](CCC(=O)O)C(=O)N[C@@H](CCCN=C(N)N)C(=O)N[C@H](C(=O)N[C@@H](CCC(=O)O)C(=O)N[C@@H](Cc1c[nH]c2ccccc12)C(=O)N[C@@H](CC(C)C)C(=O)N[C@@H](CCCN=C(N)N)C(=O)N[C@@H](CCCCN)C(=O)N[C@@H](CCCCN)C(=O)N[C@@H](CC(C)C)C(=O)N[C@@H](CCC(N)=O)C(=O)N[C@@H](CC(=O)O)C(=O)N[C@H](C(=O)N[C@@H](Cc1cnc[nH]1)C(=O)N[C@@H](CC(N)=O)C(=O)N[C@@H](Cc1ccccc1)C(=O)O)C(C)C)C(C)C [hPTH1-34], the “MDA-MB-231 tumor growth in bone” value [2] is given as “increased”, the “cortical bone parameters (periosteal circumference and cortical thickness)” value [3, 5] is given as “increased only by hPTH1-34” and the “mineral apposition (MAR, BFR)” value [3, 5] is given as “equivalently increased”. For the same molecule, the “tibial trabecular bone parameters (BV/TV, trabecular number)” value [3, 5] was “increased by both”, the “elevation of urinary calcium excretion” value [3, 6] was 5 × and the “mRNA for Dars, aspartyl-tRNA synthetase, in bone” value [3, 6] was “increased”. The “mRNA of Gab 1 in bone” value [3, 6] was “doubled”, the serum osteocalcin ([3]; once-daily injection) was “equivalently raised” and the “osteoblast number and osteoid surface” value ([3]; quantitative histomorphometry) was “increased by both”. The osteoclast numbers ([3]; quantitative histomorphometry) was “increased only by hPTH1-34” and the “anabolic markers of Obl activity (RUNX2, Alk Phos, Col1A1)” value [4] was “strongly increased”.
